US6337346B1 (University of North Carolina at Chapel Hill, priority 1998, dated 2002)
≈ marks a conversion by molar mass, not a printed value. Like-named read-outs stand apart in the source and are kept apart here.

How the values were obtained:
KB cells [1] = conditions: cited from earlier work; for ED50: KB cells, background, numbering of Examples 1-13
KB cells [2] = assay: Preliminary KB cell assay (cytotoxicity); type: cell-based; conditions: Homo sapiens, numbering of Examples 14-16, read-out: ED50 (the source's name)
Method: Many anthraquinones, including mitoxantrone (1), show antineoplastic activity (Zee-Cheng, R. Y.; Podrebarac, E. G; Menon, C. S.; Cheng, C. C. J. Med. Chem. 1979, 22, 501-505). In addition, the natural product 2-acetyl-4H, 9H-naphtho[2,3-b]furan-4,9-dione (2) isolated from Tabebuia cassinoids (Lam.) DC.
The unsubstituted (3), two mono-acetyl (5, 6), and two di-acetyl (9, 10) derivatives were tested for cytotoxicity in a preliminary KB cell assay.

MCF 7/ADR-RES = assay: NCI in vitro human tumor cell line assay; type: cell-based; conditions: MCF7, Breast Cancer MCF 7/ADR-RES, Table 3 (numbering of Examples 14-16), average of at least two testings, read-out: Cytotoxicity log GI50 (converted)
LOX IMVI = assay: NCI in vitro disease-oriented tumor cells screen; type: cell-based, human; conditions: Homo sapiens, Melanoma LOX IMVI, average of at least two testings, read-out: Cytotoxicity log GI50 (converted)
Excerpt: (§1) (Activity is defined as log GI50<−4 where GI50 is the molar concentration causing 50% cell growth inhibition).

IGROV1 = assay: NCI in vitro human tumor cell line assay; type: cell-based; conditions: IGROV-1, Ovarian Cancer IGROV1, Table 3 (numbering of Examples 14-16), average of at least two testings, read-out: Cytotoxicity log GI50 (converted)
CCRF-CEM = assay: NCI in vitro human tumor cell line assay; type: cell-based; conditions: Leukemia CCRF-CEM, Table 3 (numbering of Examples 14-16), average of at least two testings, read-out: Cytotoxicity log GI50 (converted)
NCI-H23 = assay: NCI in vitro disease-oriented tumor cells screen; type: cell-based, human; conditions: Homo sapiens, Non-Small Cell Lung Cancer NCI-H23, average of at least two testings, read-out: Cytotoxicity log GI50 (converted)
Excerpt: as §1

MOLT-4 = assay: NCI in vitro human tumor cell line assay; conditions: MOLT-4, read-out: Cytotoxicity log GI50 (converted)
SK-MEL-5 = assay: NCI in vitro disease-oriented tumor cells screen; type: cell-based, human; conditions: Homo sapiens, Melanoma SK-MEL-5, average of at least two testings, read-out: Cytotoxicity log GI50 (converted)
Excerpt: as §1

MDA-N = assay: NCI in vitro disease-oriented tumor cells screen; type: cell-based, human; conditions: Homo sapiens, Breast Cancer MDA-N, average of at least two testings, read-out: Cytotoxicity log GI50 (converted)
Excerpt: as §1

NCI-H460 = assay: NCI in vitro human tumor cell line assay; type: cell-based; conditions: Non-Small Cell Lung Cancer NCI-H460, Table 3 (numbering of Examples 14-16), average of at least two testings, read-out: Cytotoxicity log GI50 (converted)
SW-620 = assay: NCI in vitro human tumor cell line assay; type: cell-based; conditions: Colon Cancer SW-620, Table 3 (numbering of Examples 14-16), average of at least two testings, read-out: Cytotoxicity log GI50 (converted)
MCF 7 = assay: NCI in vitro human tumor cell line assay; type: cell-based; conditions: MCF7, Breast Cancer MCF 7, Table 3 (numbering of Examples 14-16), average of at least two testings, read-out: Cytotoxicity log GI50 (converted)
OVCAR-3 = assay: NCI in vitro disease-oriented tumor cells screen; type: cell-based, human; conditions: Homo sapiens, Ovarian Cancer OVCAR-3, average of at least two testings, read-out: Cytotoxicity log GI50 (converted)
Excerpt: as §1

SNB-19 = assay: NCI in vitro human tumor cell line assay; type: cell-based; conditions: CNS Cancer SNB-19, Table 3 (numbering of Examples 14-16), average of at least two testings, read-out: Cytotoxicity log GI50 (converted)
human tumor cell lines [3] = assay: NCI in vitro screen, mean over all cell lines tested; conditions: Homo sapiens, read-out: Cytotoxicity log GI50, Mean Value (converted)
Excerpt: as §1

NCI-H552 = assay: NCI in vitro human tumor cell line assay; type: cell-based; conditions: Non-Small Cell Lung Cancer NCI-H552, Table 3 (numbering of Examples 14-16), average of at least two testings, read-out: Cytotoxicity log GI50 (converted)
SF-539 = assay: NCI in vitro human tumor cell line assay; type: cell-based; conditions: CNS Cancer SF-539, Table 3 (numbering of Examples 14-16), average of at least two testings, read-out: Cytotoxicity log GI50 (converted)
MDA-MB-435 = assay: NCI in vitro disease-oriented tumor cells screen; type: cell-based, human; conditions: Homo sapiens, Breast Cancer MDA-MB-435, average of at least two testings, read-out: Cytotoxicity log GI50 (converted)
Excerpt: as §1

HCT-15 = assay: NCI in vitro human tumor cell line assay; type: cell-based; conditions: Colon Cancer HCT-15, Table 3 (numbering of Examples 14-16), average of at least two testings, read-out: Cytotoxicity log GI50 (converted)
HS 578T = assay: NCI in vitro disease-oriented tumor cells screen; type: cell-based, human; conditions: Homo sapiens; Breast Cancer HS 578T; Table 2; average of at least two testings; read-out: Cytotoxicity log GI50 (converted)
Excerpt: as §1

SK-MEL-28 = assay: NCI in vitro disease-oriented tumor cells screen; type: cell-based, human; conditions: Homo sapiens; Melanoma SK-MEL-28; Table 2; average of at least two testings; read-out: Cytotoxicity log GI50 (converted)
Excerpt: as §1

NCI-H522 = assay: NCI in vitro disease-oriented tumor cells screen; type: cell-based, human; conditions: Homo sapiens; Non-Small Cell Lung Cancer NCI-H522; Table 2; average of at least two testings; read-out: Cytotoxicity log GI50 (converted)
Excerpt: as §1

BT-549 = assay: NCI in vitro disease-oriented tumor cells screen; type: cell-based, human; conditions: Homo sapiens; Breast Cancer BT-549; Table 2; average of at least two testings; read-out: Cytotoxicity log GI50 (converted)
Excerpt: as §1

SK-MEL-2 = assay: NCI in vitro disease-oriented tumor cells screen; type: cell-based, human; conditions: Homo sapiens; Melanoma SK-MEL-2; Table 2; average of at least two testings; read-out: Cytotoxicity log GI50 (converted)
Excerpt: as §1

MALME-3M = assay: NCI in vitro disease-oriented tumor cells screen; type: cell-based, human; conditions: Homo sapiens; Melanoma MALME-3M; Table 2; average of at least two testings; read-out: Cytotoxicity log GI50 (converted)
Excerpt: as §1

UACC-257 = assay: NCI in vitro disease-oriented tumor cells screen; type: cell-based, human; conditions: Homo sapiens; Melanoma UACC-257; Table 2; average of at least two testings; read-out: Cytotoxicity log GI50 (converted)
Excerpt: as §1

M14 = assay: NCI in vitro disease-oriented tumor cells screen; type: cell-based, human; conditions: Homo sapiens; Melanoma M14; Table 2; average of at least two testings; read-out: Cytotoxicity log GI50 (converted)
Excerpt: as §1

human tumor cell lines [4] = test system: human tumor cell lines
Excerpt: as §1

UACC-62 = assay: NCI in vitro disease-oriented tumor cells screen; type: cell-based, human; conditions: Homo sapiens; Melanoma UACC-62; Table 2; average of at least two testings; read-out: Cytotoxicity log GI50 (converted)
Excerpt: as §1

OVCAR-8 = assay: NCI in vitro disease-oriented tumor cells screen; type: cell-based, human; conditions: Homo sapiens; Ovarian Cancer OVCAR-8; Table 2; average of at least two testings; read-out: Cytotoxicity log GI50 (converted)
Excerpt: as §1

HL-60(TB) = assay: NCI in vitro disease-oriented tumor cells screen; type: cell-based, human; conditions: Homo sapiens; Leukemia HL-60(TB); Table 2; average of at least two testings; read-out: Cytotoxicity log GI50 (converted)
Excerpt: as §1

[5] = Table 3 (numbering of Examples 14-16)
[6] = Table 2 (numbering of Examples 1-13)

In the case of `O=C1c2c(O)ccc(O)c2C(=O)c2c(NCCNCCO)ccc(NCCNCCO)c21` [Compound 1, mitoxantrone], the ED50 (KB cells [1]) is listed as 1.0 µg/mL (≈ 2.25 µM).

In the case of `CC(=O)c1cc2c(o1)C(=O)c1ccccc1C2=O` [Compound 2, 2-acetyl-4H, 9H-naphtho[2,3-b]furan-4,9-dione], the EC50 (KB cells [1]; KB cell culture assay, numbering of Examples 14-16, read-out: ED50 (the source's name)) is listed as 4200 nM and the ED50 (KB cells [1]) is listed as 2.0 µg/mL (≈ 8.33 µM).

`O=C1c2ccccc2C(=O)c2sccc21` [Compound 3, naphtho[2,3-b]thiophene-4,9-dione, reference compound] showed an EC50 (KB cells [2]) of 6500 nM.

For `O=C1c2ccccc2C(=O)c2sccc21` [Compound 4, naphtho[2,3-b]thiophene-4,9-dione], the ED50 (KB cells [1]) is given as 1.4 µg/mL (≈ 6.53 µM).

In the case of `CC(=O)c1cc2c(s1)C(=O)c1ccccc1C2=O` [Compound 5, 2-Acetyl-naphtho[2,3-b]thiophene-4,9-dione], the ED50 (KB cells [1]) is given as 0.4 µg/mL (≈ 1.56 µM), the GI50 (MCF 7/ADR-RES) is given as 1910 nM and the GI50 (LOX IMVI; [5]) is given as 347 nM. It also gave a GI50 (IGROV1) of 1780 nM, a GI50 (CCRF-CEM) of 1000 nM and a GI50 (NCI-H23; [5]) of 447 nM. It also gave a GI50 (MOLT-4) of 2040 nM, a GI50 (SK-MEL-5; [5]) of 347 nM and a GI50 (MDA-N; [5]) of 1200 nM. For the same compound, the EC50 (KB cells [2]) was about 1500 nM, the GI50 (NCI-H460) was 457 nM and the GI50 (SW-620) was 457 nM. For the same compound, the GI50 (MCF 7) was 1700 nM, the melting point was 139 to 140 °C and the GI50 (OVCAR-3; [5]) was 501 nM. The GI50 (SNB-19) was 501 nM, the GI50 (human tumor cell lines [3]) was 1950 nM and the GI50 (NCI-H552) was 407 nM. For the same compound, the GI50 (SF-539) was 759 nM, the GI50 (MDA-MB-435; [5]) was 339 nM and the GI50 (HCT-15) was 708 nM.

In the case of `CC(O)c1cc2c(s1)C(=O)c1c(C(C)O)csc1C2=O` (stereo not shown) [Compound 14, 2,7-Bis(1′-hydroxyethyl)-4,8-dihydrobenzo [1,2-b:4,5-b′]dithiophene-4,8-dione], the GI50 (HS 578T) is reported as 316 nM, the GI50 (SK-MEL-28) is reported as 186 nM and the GI50 (NCI-H522) is reported as 302 nM. The GI50 (LOX IMVI; [6]) was 55 nM, the GI50 (BT-549) was 162 nM and the GI50 (NCI-H23; [6]) was 33.9 nM. The GI50 (SK-MEL-2) was 112 nM, the GI50 (SK-MEL-5; [6]) was 12.6 nM and the GI50 (MDA-N; [6]) was 20.9 nM. For the same compound, the GI50 (MALME-3M) was 27.5 nM, the GI50 (UACC-257) was 61.7 nM and the GI50 (OVCAR-3; [6]) was 11.7 nM. For the same compound, the GI50 (M14) was 57.5 nM, the “overall cytotoxicity / potency (in words)” value (human tumor cell lines [4]) was “overall cytotoxicity comparable to the monosubstituted compounds” and the GI50 (human tumor cell lines [3]) was 148 nM. For the same compound, the GI50 (UACC-62) was 32.4 nM, the GI50 (OVCAR-8) was 219 nM and the GI50 (HL-60(TB)) was 11.2 nM. The GI50 (MDA-MB-435; [6]) was 17.8 nM.

With `CC(O)c1cc2c(s1)C(=O)c1sccc1C2=O` (stereo not shown) [Compound 20, 2-(1′-Hydroxyethyl)-4,8-dihydrobenzo[1,2-b:5,4-b′]dithiophene-4,8-dione] the GI50 (HS 578T) was 57.5 nM, the GI50 (SK-MEL-28) was 38.9 nM and the GI50 (NCI-H522) was 123 nM. For the same compound, the GI50 (LOX IMVI; [6]) was 24 nM, the GI50 (BT-549) was 34.7 nM and the GI50 (NCI-H23; [6]) was 15.5 nM. The GI50 (SK-MEL-2) was 30.9 nM, the GI50 (SK-MEL-5; [6]) was 13.5 nM and the GI50 (MDA-N; [6]) was 18.6 nM. For the same compound, the GI50 (MALME-3M) was 19.1 nM, the GI50 (UACC-257) was 18.2 nM and the melting point was 170 to 172 °C. The GI50 (OVCAR-3; [6]) was 117 nM, the GI50 (M14) was 14.8 nM and the “overall cytotoxicity / potency (in words)” value (human tumor cell lines [4]) was “excellent overall cytotoxicity”. The GI50 (human tumor cell lines [3]) was 135 nM, the GI50 (UACC-62) was 22.4 nM and the GI50 (OVCAR-8) was 162 nM. The GI50 (HL-60(TB)) was 69.2 nM and the GI50 (MDA-MB-435; [6]) was 16.2 nM.

For `CC(=O)OC(C)c1cc2c(s1)C(=O)c1sccc1C2=O` (stereo not shown) [Compound 21, 2-(1′-Acetoxyethyl)-4,8-dihydrobenzo[1,2-b:5,4-b′]dithiophene-4,8-dione], the GI50 (HS 578T) was 513 nM, the GI50 (SK-MEL-28) was 646 nM and the GI50 (NCI-H522) was 871 nM. It also gave a GI50 (LOX IMVI; [6]) of 209 nM, a GI50 (BT-549) of 282 nM and a GI50 (NCI-H23; [6]) of 219 nM. The GI50 (SK-MEL-2) was 417 nM, the GI50 (SK-MEL-5; [6]) was 107 nM and the GI50 (MDA-N; [6]) was 19.1 nM. The GI50 (MALME-3M) was 120 nM, the GI50 (UACC-257) was 214 nM and the melting point was 165 to 166 °C. The GI50 (OVCAR-3; [6]) was 490 nM, the GI50 (M14) was 162 nM and the “overall cytotoxicity / potency (in words)” value (human tumor cell lines [4]) was “among the least active”. For the same compound, the GI50 (human tumor cell lines [3]) was 794 nM, the GI50 (UACC-62) was 1380 nM and the GI50 (OVCAR-8) was 1410 nM. For the same compound, the GI50 (HL-60(TB)) was 1740 nM and the GI50 (MDA-MB-435; [6]) was 182 nM.
